What is called IC50 is the concentration at which inhibition is half-maximal. Broadly, the EC50 is the concentration that produces a half-maximal response.

The values that follow come from patent US20130109682A1, “CYCLIC ETHER COMPOUNDS USEFUL AS KINASE INHIBITORS” (NOVARTIS AG, priority 2010, published 2013).

One assay addresses GSK3β (Homo sapiens, UniProt P49841). Briefly: GSK3β ATP depletion assay. The format is biochemical. The note with it: ATP depletion assay; read-out: GSK3b IC50. In short, it runs like this:
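Human GSK3β (5 nM) preincubated 15 min with 10 μM biotinylated phospho-CREB peptide in pH 7.5 Tris buffer (15 mM MgCl2, 1 mM DTT, 0.1% BSA, 2.5% DMSO). Reaction started with 2 μM ATP and run to about 50% ATP depletion. Remaining ATP measured by KinaseGlo luminescence.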

The test system of assay [1] is KMS11 (human myeloma cell line). Briefly: Cell proliferation assay (CellTiter-Glo), KMS11. The format is cell-based. Particulars: Homo sapiens, KMS-11; KMS11 cells, cell proliferation; read-out: KMS11-Luc EC50. In short, it runs like this:
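KMS11 cells in IMDM with 10% FBS and sodium pyruvate, seeded at 2000 cells/well on assay day. Compound added at 2× to equal volume of cells, incubated 3 days at 37° C. Viability read by CellTiter-Glo luminescence; EC50 derived.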

A further assay addresses PIM2 (Homo sapiens, UniProt Q9P1W9). The experiment in a line: Pim 2 AlphaScreen assay (high ATP). Type of assay: biochemical. The note with it: read-out: Pim2 IC50. How it is done:
(§1) Pim1, Pim2, Pim3 AlphaScreen Assay Pim 1, Pim 2 & Pim 3 AlphaScreen assays using high ATP (11-125×ATP Km) were used to determine the biochemical activity of the inhibitors. The activity of Pim 1, Pim 2, & Pim 3 is measured using a homogeneous bead based system quantifying the amount of phosphorylated peptide substrate resulting from kinase-catalyzed phosphoryl transfer to a peptide substrate. Compounds to be tested are dissolved in 100% DMSO and directly distributed to a white 384-well plate at […] per well. To start the reaction, 5 μl of 100 nM Bad peptide (Biotin-AGAGRSRHSSYPAGT —OH) and ATP (concentrations described below) in assay buffer (50 mM Hepes, pH=7.5, 5 mM MgCl2, 0.05% BSA, 0.01% Tween-20, 1 mM DTT) is added to each well. This is followed by the addition of 5 μl/well of Pim 1, Pim 2 or Pim 3 kinase in assay buffer (concentrations described below). Final assay concentrations (described below) are in 2.5% DMSO. The reactions are performed for ˜2 hours, then stopped by the addition of 10 μl of 0.75 μg/ml anti-phospho Ser/Thr antibody (Cell Signaling), 10 μg/ml Protein A AlphaScreen beads (Perkin Elmer), and 10 μg/ml streptavidin coated AlphaScreen beads in stop/detection buffer (50 mM EDTA, 95 mM Tris, pH=7.5, 0.01% Tween-20). The stopped reactions are incubated overnight in the dark. The phosphorylated peptide is detected via an […] initiated chemiluminescence/fluorescence cascade using the Envision plate reader (Perkin Elmer).
(§2) IC50, the half maximal inhibitory concentration, represents the concentration of a test compound that is required for 50% inhibition of its target in vitro under the described assay conditions.

A further assay concerns the target PIM1 (Homo sapiens, UniProt P11309). The experiment in a line: Pim 1 AlphaScreen assay (high ATP). The format is biochemical. The note with it: read-out: Pim1 IC50. How it is done: as §1, §2
On the technique in general: Bead proximity is the source of the signal in Alpha formats.

For the next assay, the target named is PIM3 (Homo sapiens, UniProt Q86V86). The experiment in a line: Pim 3 AlphaScreen assay (high ATP). Type of assay: biochemical. Particulars: read-out: Pim3 IC50. On the procedure: as §1, §2

PIM2, sequence (Q9P1W9 whole entry): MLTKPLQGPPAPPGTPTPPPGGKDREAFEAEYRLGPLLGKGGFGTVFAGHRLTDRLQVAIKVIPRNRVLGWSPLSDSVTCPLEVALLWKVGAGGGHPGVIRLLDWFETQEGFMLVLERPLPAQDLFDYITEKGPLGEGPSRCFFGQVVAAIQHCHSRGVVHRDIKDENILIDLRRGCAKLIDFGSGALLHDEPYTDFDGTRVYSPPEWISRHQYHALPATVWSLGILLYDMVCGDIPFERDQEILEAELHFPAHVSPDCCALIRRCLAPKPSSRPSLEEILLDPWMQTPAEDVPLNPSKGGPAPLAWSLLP
GSK3β, sequence (P49841 whole entry, species assumed): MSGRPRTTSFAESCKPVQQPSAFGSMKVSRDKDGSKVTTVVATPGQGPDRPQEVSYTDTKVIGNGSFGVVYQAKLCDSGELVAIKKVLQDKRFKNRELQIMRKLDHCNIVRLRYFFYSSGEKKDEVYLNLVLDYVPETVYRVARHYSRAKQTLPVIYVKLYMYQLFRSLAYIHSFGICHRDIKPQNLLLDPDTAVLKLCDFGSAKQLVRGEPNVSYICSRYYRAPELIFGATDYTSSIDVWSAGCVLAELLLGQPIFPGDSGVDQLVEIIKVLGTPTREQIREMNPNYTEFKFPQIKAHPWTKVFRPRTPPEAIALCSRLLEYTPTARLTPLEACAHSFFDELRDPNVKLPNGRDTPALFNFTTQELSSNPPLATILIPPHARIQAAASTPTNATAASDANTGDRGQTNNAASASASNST
PIM1, sequence (P11309 whole entry): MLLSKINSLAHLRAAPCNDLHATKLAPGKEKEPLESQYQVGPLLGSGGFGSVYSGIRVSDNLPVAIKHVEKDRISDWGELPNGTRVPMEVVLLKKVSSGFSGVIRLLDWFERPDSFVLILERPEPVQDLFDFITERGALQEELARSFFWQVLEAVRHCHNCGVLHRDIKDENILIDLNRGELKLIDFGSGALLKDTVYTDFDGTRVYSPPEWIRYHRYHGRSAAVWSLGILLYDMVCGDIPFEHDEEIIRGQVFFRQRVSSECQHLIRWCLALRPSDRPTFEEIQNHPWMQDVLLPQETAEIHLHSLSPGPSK

With `C[C@]1(O)[C@H](N)CC(c2ccncc2NC(=O)c2ccc(F)c(-c3c(F)cc(S(C)(=O)=O)cc3F)n2)O[C@@H]1C1CC1` (stereo in doubt) [Example 281, N-(4-((2S,4R,5S,6R)-4-amino-6-cyclopropyl-5-hydroxy-5-methyltetrahydro-2H-pyran-2-yl)pyridin-3-yl)-6-(2,6-difluoro-4-(methylsulfonyl)phenyl)-5-fluoropicolinamide], the figures for the IC50 at GSK3β and on PIM2 were 4250 nM and 62.3 nM, respectively. The EC50 in assay [1] was 1090 nM.
Consider `CC(C)[C@H]1OC(c2ccncc2NC(=O)c2ccc(F)c(-c3c(F)cc(S(C)(=O)=O)cc3F)n2)C[C@@H](N)[C@@H]1O` (stereo in doubt) [Example 305, N-(4-((2S,4R,5S,6R)-4-amino-5-hydroxy-6-isopropyltetrahydro-2H-pyran-2-yl)pyridin-3-yl)-6-(2,6-difluoro-4-(methylsulfonyl)phenyl)-5-fluoropicolinamide], for which the IC50 on GSK3β is 2840 nM; on PIM2, 15.3 nM. For the same molecule, the EC50 in assay [1] worked out at 310 nM.
As for `Nc1cc(F)c(-c2c(F)cccc2F)nc1C(=O)Nc1cnccc1[C@H]1C[C@@H](N)[C@@]2(O)CCC[C@H]2O1` [Example 216, 3-amino-N-(4-((2R,4R,4aS,7aR)-4-amino-4a-hydroxyoctahydrocyclopenta[b]pyran-2-yl)pyridin-3-yl)-6-(2,6-difluorophenyl)-5-fluoropicolinamide], the IC50 on GSK3β came out at 946 nM; at PIM1, 0.14 nM; at PIM3 it was 1.7 nM. Further, the EC50 in assay [1] stood at 530 nM.
Take `CC(C)(C)[C@H]1O[C@@H](c2ccncc2NC(=O)c2ccc(F)c(-c3c(F)cc(S(C)(=O)=O)cc3F)n2)C[C@@H](N)[C@@H]1O` [Example 280, N-(4-((2R,4R,5S,6R)-4-amino-6-(tert-butyl)-5-hydroxytetrahydro-2H-pyran-2-yl)pyridin-3-yl)-6-(2,6-difluoro-4-(methylsulfonyl)phenyl)-5-fluoropicolinamide]: the IC50 is 2250 nM at GSK3β and 11.8 nM on PIM2. Moreover, the EC50 in assay [1] stood at 200 nM.
In the case of `C[C@H]1O[C@@H](c2ccncc2NC(=O)c2ccc(F)c(-c3c(F)cc(S(C)(=O)=O)cc3F)n2)C[C@@H](N)[C@]1(C)O` [Example 285, N-(4-((2R,4R,5S,6R)-4-amino-5-hydroxy-5,6-dimethyltetrahydro-2H-pyran-2-yl)pyridin-3-yl)-6-(2,6-difluoro-4-(methylsulfonyl)phenyl)-5-fluoropicolinamide], the figures for the IC50 at GSK3β and on PIM2 were 1290 nM and 44.9 nM, respectively. The half-maximal effective concentration (EC50) in assay [1] is 1170 nM.
As to `CC1(C)C[C@H](N)C[C@@H](c2ccncc2NC(=O)c2ccc(F)c(-c3c(F)cccc3F)n2)O1` [Example 299, N-(4-((2S,4R)-4-amino-6,6-dimethyltetrahydro-2H-pyran-2-yl)pyridin-3-yl)-6-(2,6-difluorophenyl)-5-fluoropicolinamide], the IC50 at GSK3β worked out at 225 nM; at PIM2, 6.4 nM. The EC50 in assay [1] worked out at 140 nM.
For `CC(C)[C@@H]1C[C@H](N)C[C@H](c2ccncc2NC(=O)c2ccc(F)c(-c3c(F)cccc3F)n2)O1` [Example 300, N-(4-((2R,4S,6S)-4-amino-6-isopropyltetrahydro-2H-pyran-2-yl)pyridin-3-yl)-6-(2,6-difluorophenyl)-5-fluoropicolinamide], the values for the IC50 on GSK3β and on PIM2 were 3300 nM and 11.5 nM, respectively. In assay [1], the EC50 stood at 690 nM.
Regarding `CC(C)[C@@H]1C[C@H](N)C[C@H](c2ccncc2NC(=O)c2ccc(F)c(-c3c(F)cc(S(C)(=O)=O)cc3F)n2)O1` [Example 302, N-(4-((2R,4S,6S)-4-amino-6-isopropyltetrahydro-2H-pyran-2-yl)pyridin-3-yl)-6-(2,6-difluoro-4-(methylsulfonyl)phenyl)-5-fluoropicolinamide], the IC50 on GSK3β is 1580 nM; on PIM2 it was 71.3 nM. Besides, the EC50 in assay [1] was 1620 nM.
As for `CNC(=O)c1cc(F)c(-c2nc(C(=O)Nc3cnccc3[C@H]3C[C@@H](N)[C@](C)(O)[C@@H](C)O3)ccc2F)c(F)c1` [Example 333, N-(4-((2R,4R,5S,6R)-4-amino-5-hydroxy-5,6-dimethyltetrahydro-2H-pyran-2-yl)pyridin-3-yl)-6-(2,6-difluoro-4-(methylcarbamoyl)phenyl)-5-fluoropicolinamide], the EC50 in assay [1] is 3760 nM. Moreover, at PIM2, the IC50 turned out to be 27.3 nM.
For `C[C@H]1O[C@@H](c2ccncc2NC(=O)c2ccc(F)c(-c3c(F)cc(C(=O)N(C)C)cc3F)n2)C[C@@H](N)[C@]1(C)O` [Example 334, N-(4-((2R,4R,5S,6R)-4-amino-5-hydroxy-5,6-dimethyltetrahydro-2H-pyran-2-yl)pyridin-3-yl)-6-(4-(dimethylcarbamoyl)-2,6-difluorophenyl)-5-fluoropicolinamide], in that order: 760 nM and 62.7 nM.
For the molecule `C[C@H]1O[C@@H](c2ccncc2NC(=O)c2ccc(F)c(N3CCS(=O)(=O)CC3)n2)C[C@@H](N)[C@]1(C)O` [Example 335, N-(4-((2R,4R,5S,6R)-4-amino-5-hydroxy-5,6-dimethyltetrahydro-2H-pyran-2-yl)pyridin-3-yl)-6-(1,1-dioxidothiomorpholino)-5-fluoropicolinamide], the EC50 in assay [1] is over 10000 nM. The IC50 at PIM2 is over 25000 nM.
Consider `CC[C@H]1O[C@@H](c2ccncc2NC(=O)c2ccc(F)c(-c3c(F)cc(C(C)(C)O)cc3F)n2)C[C@@H](N)[C@@H]1O` [Example 336, N-(4-((2R,4R,5S,6R)-4-amino-6-ethyl-5-hydroxytetrahydro-2H-pyran-2-yl)pyridin-3-yl)-6-(2,6-difluoro-4-(2-hydroxypropan-2-yl)phenyl)-5-fluoropicolinamide], for which the EC50 in assay [1] was found to be 180 nM. The IC50 at PIM2 stood at 3.9 nM.
`CC(C)[C@@H]1C[C@H](N)C[C@H](c2ccncc2NC(=O)c2ccc(F)c(-c3c(F)ccc(C#N)c3F)n2)O1` [Example 337, N-(4-((2R,4S,6S)-4-amino-6-isopropyltetrahydro-2H-pyran-2-yl)pyridin-3-yl)-6-(3-cyano-2,6-difluorophenyl)-5-fluoropicolinamide]: in assay [1], the EC50 came to 1350 nM. At PIM2, the IC50 is 40 nM.
Turning to `CC(=O)Nc1cc(F)c(-c2nc(C(=O)Nc3cnccc3[C@H]3C[C@@H](N)[C@](C)(O)[C@@H](C)O3)ccc2F)c(F)c1` [Example 338, 6-(4-acetamido-2,6-difluorophenyl)-N-(4-((2R,4R,5S,6R)-4-amino-5-hydroxy-5,6-dimethyltetrahydro-2H-pyran-2-yl)pyridin-3-yl)-5-fluoropicolinamide], in assay [1], the EC50 stood at 940 nM. In addition, the IC50 on PIM2 came to 2.1 nM.
Take `CC(C)C(=O)Nc1cc(F)c(-c2nc(C(=O)Nc3cnccc3[C@H]3C[C@@H](N)[C@](C)(O)[C@@H](C)O3)ccc2F)c(F)c1` [Example 339, N-(4-((2R,4R,5S,6R)-4-amino-5-hydroxy-5,6-dimethyltetrahydro-2H-pyran-2-yl)pyridin-3-yl)-6-(2,6-difluoro-4-isobutyramidophenyl)-5-fluoropicolinamide]: in assay [1], the EC50 was found to be 230 nM. At PIM2, the IC50 stood at 3.5 nM.
